Results published in patent US6723841B2, “Corticotropin-releasing factor2 receptors” (priority 1994, dated 2004).
Ends that are not written are not given here.

How the values were obtained:
Type in all cases: cell-based
human CRF2α receptor = assay: cAMP assay (adenylate cyclase stimulation) in cells transfected with CRF2α receptor; settings: cAMP production, read-out: effective concentration of one-half maximal adenylate cyclase stimulation (EC50), human CRF2α receptor
Description: (§1) For agonist testing, compounds are added to wells with buffer only in order to identify compounds with intrinsic activity. […] Compounds are then assessed for their ability to inhibit the CRF-stimulated cAMP production in the transfected cells. Briefly, cells are plated and grown in DMEM containing 10% fetal bovine serum for 2-4 days in 24-well plates at 37° C. On the day of assay, the medium is removed by vacuum aspiration and 100 μl of DMEM, 10 mM MgCl2, 1 mM isobutylmethylxanthine (a phosphodiesterase inhibitor to inhibit the breakdown of cAMP produced) and 0.1% BSA (pH 7.2) are added to each well. CRF, related peptides and organic test molecules are added to individual wells. The plates are incubated at 37° C. for a period of 1 hour. Following incubation, the wells are aspirated, rinsed once with PBS and aspirated again. 300 μl of 95% Ethanol and 20 mM HCl (EtOH/HCl) are then added to each well and the plates incubated at −20° C. overnight to extract the produced cAMP. The EtOH/HCl is removed, placed in 1.5 ml polypropylene eppendorf tubes and the wells washed with an additional 200 μl of EtOH/HCl and pooled with the initial sample. All samples are dried in a Speed-Vac (Savant Instruments, Farmingdale N.Y.) and either stored at −20° C. until use or reconstituted with 500 μl of sodium acetate buffer pH 7.5 and assayed immediately for cAMP concentration using a radioimmunoassay kit from Biomedical Technologies Inc. (Stoughton Mass.) according to manufacturers instructions.
The above results have been formulated below in Table I, wherein the effective concentration of one-half maximal adenylate cyclase stimulation (EC50) are presented.

rat CRF2β receptor = target: T1, rat CRF2β receptor (Rattus norvegicus, UniProt P47866); assay: cAMP assay (adenylate cyclase stimulation) in cells transfected with CRF2β receptor; settings: cAMP production, read-out: effective concentration of one-half maximal adenylate cyclase stimulation (EC50), rat CRF2β receptor
T1 construct: A full-length CRF2 receptor clone in pBluescriptSK- is isolated from the phage clone described above; expressed in transfected cells; host or cells: COS-7
Description: (§2) For agonist testing, compounds are added to wells with buffer only in order to identify compounds with intrinsic activity. […] Briefly, cells are plated and grown in DMEM containing 10% fetal bovine serum for 2-4 days in 24-well plates at 37° C. On the day of assay, the medium is removed by vacuum aspiration and 100 μl of DMEM, 10 mM MgCl2, 1 mM isobutylmethylxanthine (a phosphodiesterase inhibitor to inhibit the breakdown of cAMP produced) and 0.1% BSA (pH 7.2) are added to each well. […] The plates are incubated at 37° C. for a period of 1 hour. Following incubation, the wells are aspirated, rinsed once with PBS and aspirated again. 300 μl of 95% Ethanol and 20 mM HCl (EtOH/HCl) are then added to each well and the plates incubated at −20° C. overnight to extract the produced cAMP. The EtOH/HCl is removed, placed in 1.5 ml polypropylene eppendorf tubes and the wells washed with an additional 200 μl of EtOH/HCl and pooled with the initial sample. All samples are dried in a Speed-Vac (Savant Instruments, Farmingdale N.Y.) and either stored at −20° C. until use or reconstituted with 500 μl of sodium acetate buffer pH 7.5 and assayed immediately for cAMP concentration using a radioimmunoassay kit from Biomedical Technologies Inc. (Stoughton Mass.) according to manufacturers instructions.

rat CRF2α receptor = target: T2, rat CRF2α receptor (Rattus norvegicus, UniProt P47866); assay: cAMP accumulation in cells transfected with rat CRF2α receptor (FIG. 4)
T2 construct: A full-length CRF2 receptor clone in pBluescriptSK- is isolated from the phage clone described above; expressed in transfected cells; host or cells: COS-7
Description: as §1, with “All samples are dried in a Speed-Vac (Savant Instruments, Farmingdale N.Y.) and either stored at −20° C. until use or reconstituted with 500 μl of sodium acetate buffer pH 7.5 and assayed immediately for cAMP concentration using a radioimmunoassay kit from Biomedical Technologies Inc. (Stoughton Mass.) according to manufacturers instructions.” left out
In FIG. 4, the rat CRF2α receptor has been transfected into cells and cAMP accumulation is measured in response to the same drugs as shown in FIG. 3. […]

human CRF1 receptor = target: T3, human CRF1 receptor (Homo sapiens, UniProt P34998); assay: cAMP assay (adenylate cyclase stimulation) in cells transfected with CRF1 receptor; settings: for EC50: transfected cells, cAMP production, read-out: effective concentration of one-half maximal adenylate cyclase stimulation (EC50), human CRF1 receptor; for cAMP accumulation in cells transfected with the CRF1 receptor: FIG. 3
T3 construct: expressed in transfected cells
T3 sequence (P34998 24-415): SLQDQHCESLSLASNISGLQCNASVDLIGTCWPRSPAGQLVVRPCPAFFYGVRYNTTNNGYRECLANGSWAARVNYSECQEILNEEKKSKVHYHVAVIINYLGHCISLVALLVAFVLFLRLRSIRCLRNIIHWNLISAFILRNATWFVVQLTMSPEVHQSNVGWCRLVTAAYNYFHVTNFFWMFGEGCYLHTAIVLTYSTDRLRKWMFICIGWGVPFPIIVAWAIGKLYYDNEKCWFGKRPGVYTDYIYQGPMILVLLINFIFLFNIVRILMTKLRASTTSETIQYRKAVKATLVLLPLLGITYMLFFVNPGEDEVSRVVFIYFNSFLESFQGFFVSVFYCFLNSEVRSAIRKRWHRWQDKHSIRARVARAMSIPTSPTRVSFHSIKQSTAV
Description: as §2

T2 sequence (P47866 whole entry): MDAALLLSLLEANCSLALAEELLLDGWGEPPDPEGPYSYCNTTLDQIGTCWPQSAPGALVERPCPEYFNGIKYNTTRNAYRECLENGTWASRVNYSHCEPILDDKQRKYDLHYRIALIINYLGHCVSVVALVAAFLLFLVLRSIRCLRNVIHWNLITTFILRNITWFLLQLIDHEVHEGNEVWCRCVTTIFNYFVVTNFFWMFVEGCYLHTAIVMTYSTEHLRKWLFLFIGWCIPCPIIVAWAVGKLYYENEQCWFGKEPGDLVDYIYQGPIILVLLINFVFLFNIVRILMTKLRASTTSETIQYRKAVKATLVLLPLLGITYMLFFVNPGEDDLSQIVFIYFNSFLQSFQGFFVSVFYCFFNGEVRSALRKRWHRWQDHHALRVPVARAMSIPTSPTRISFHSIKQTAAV
T1 sequence (P47866 1-431 isoform P47866-2): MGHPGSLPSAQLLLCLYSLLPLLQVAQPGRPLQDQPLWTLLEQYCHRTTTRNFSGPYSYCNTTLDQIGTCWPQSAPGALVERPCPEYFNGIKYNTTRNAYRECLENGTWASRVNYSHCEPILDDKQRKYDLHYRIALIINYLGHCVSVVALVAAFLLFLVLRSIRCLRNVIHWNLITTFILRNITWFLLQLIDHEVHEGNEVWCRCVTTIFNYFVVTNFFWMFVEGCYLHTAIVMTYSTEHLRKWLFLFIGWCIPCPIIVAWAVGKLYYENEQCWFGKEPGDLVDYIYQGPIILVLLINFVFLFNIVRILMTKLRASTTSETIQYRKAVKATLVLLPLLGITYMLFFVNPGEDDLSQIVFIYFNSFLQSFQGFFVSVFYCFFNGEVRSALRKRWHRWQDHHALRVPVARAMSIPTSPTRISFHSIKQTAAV

| EC50 (human CRF2α receptor) [nM] | EC50 (human CRF1 receptor) [nM] | Compound | EC50 (rat CRF2β receptor) [nM] | relative potency at stimulating cAMP, rat CRF2α receptor (rat CRF2α receptor) | cAMP accumulation in cells transfected with the CRF1 receptor (human CRF1 receptor) |
| --- | --- | --- | --- | --- | --- |
| > 1000 | > 1000 | CC[C@H](C)[C@H](NC(=O)[C@H](C)NC(=O)[C@H](CC(=O)O)NC(=O)[C@H](C)NC(=O)[C@@H](N)Cc1ccc(O)cc1)C(=O)N[C@@H](Cc1ccccc1)C(=O)N[C@H](C(=O)N[C@@H](CC(N)=O)C(=O)N[C@@H](CO)C(=O)N[C@@H](Cc1ccc(O)cc1)C(=O)N[C@@H](CCCNC(=N)N)C(=O)N[C@@H](CCCCN)C(=O)N[C@H](C(=O)N[C@@H](CC(C)C)C(=O)NCC(=O)N[C@@H](CCC(N)=O)C(=O)N[C@@H](CC(C)C)C(=O)N[C@@H](CO)C(=O)N[C@@H](C)C(=O)N[C@@H](CCCNC(=N)N)C(=O)N[C@@H](CCCCN)C(=O)N[C@@H](CC(C)C)C(=O)N[C@@H](CC(C)C)C(=O)N[C@@H](CCC(N)=O)C(=O)N[C@@H](CC(=O)O)C(=O)N[C@H](C(=O)N[C@@H](CCSC)C(=O)N[C@@H](CO)C(=O)N[C@@H](CCCNC(=N)N)C(=O)N[C@@H](CCC(N)=O)C(=O)N[C@@H](CCC(N)=O)C(=O)NCC(=O)N[C@@H](CCC(=O)O)C(=O)N[C@@H](CO)C(=O)N[C@@H](CC(N)=O)C(=O)N[C@@H](CCC(N)=O)C(=O)N[C@@H](CCC(=O)O)C(=O)N[C@@H](CCCNC(=N)N)C(=O)NCC(=O)N[C@@H](C)C(=O)N[C@@H](CCCNC(=N)N)C(=O)N[C@@H](C)C(=O)N[C@@H](CCCNC(=N)N)C(=O)N[C@@H](CC(C)C)C(N)=O)[C@@H](C)CC)C(C)C)[C@@H](C)O [hGRF] |  |  |  |
| > 1000 |  | DLTFHLLREMLEMAKAEQEAEQAALNRLLLEEA-NH2 (C-terminus assumed) [α-helical oCRF(9-41)] |  |  |  |
| > 1000 | > 1000 | ISLDLTFHLLREVLEMARAEQLAQQAHS [r/hCRF(6-33)] |  |  |  |
| 2 |  | NDDPPISIDLTFHLLRNMIEMARIENEREQAGLNRKYLDEV-NH2 (C-terminus assumed) [Urotensin I] |  | more potent than either oCRF or r/hCRF | dose-dependent increase in cAMP |
| > 1000 | > 1000 | d-Phe r/hCRF(12-41): CRF receptor antagonist peptide |  |  |  |

| Compound | EC50 (human CRF2α receptor) [nM] | EC50 (human CRF1 receptor) [nM] | EC50 (rat CRF2β receptor) [nM] | relative potency at stimulating cAMP, rat CRF2α receptor (rat CRF2α receptor) | cAMP accumulation in cells transfected with the CRF1 receptor (human CRF1 receptor) |
| --- | --- | --- | --- | --- | --- |
| N=C(N)NCCC[C@H](NC(=O)[C@@H]1CCCN1C(=O)[C@@H]1CSSC[C@H](N)C(=O)N[C@@H](Cc2ccc(O)cc2)C(=O)N[C@@H](Cc2ccccc2)C(=O)N[C@@H](CCC(N)=O)C(=O)N[C@@H](CC(N)=O)C(=O)N1)C(=O)NCC(N)=O [AVP] | > 1000 |  |  |  |  |
| CC[C@H](C)[C@H](NC(=O)[C@@H](NC(=O)[C@H](CC(=O)O)NC(=O)[C@H](CC(C)C)NC(=O)[C@H](CC(C)C)NC(=O)[C@H](CC(C)C)NC(=O)[C@H](CCCNC(=N)N)NC(=O)[C@H](CC(N)=O)NC(=O)[C@H](CC(N)=O)NC(=O)[C@H](C)NC(=O)[C@H](C)NC(=O)[C@H](CCC(N)=O)NC(=O)[C@H](CCC(N)=O)NC(=O)[C@H](CCCCN)NC(=O)[C@H](CCC(=O)O)NC(=O)[C@H](CCCCN)NC(=O)[C@H](CCC(=O)O)NC(=O)[C@H](CCC(N)=O)NC(=O)[C@H](CCCCN)NC(=O)[C@H](CCC(=O)O)NC(=O)[C@@H](NC(=O)[C@H](CCC(=O)O)NC(=O)[C@@H](NC(=O)[C@H](CCSC)NC(=O)[C@H](CCCCN)NC(=O)[C@H](CCCNC(=N)N)NC(=O)[C@H](CC(C)C)NC(=O)[C@H](CC(C)C)NC(=O)[C@H](CCC(=O)O)NC(=O)[C@H](CC(C)C)NC(=O)[C@H](CO)NC(=O)[C@H](CC(C)C)NC(=O)[C@H](CC(=O)O)NC(=O)[C@@H](NC(=O)[C@H](CO)NC(=O)[C@@H](NC(=O)[C@@H]1CCCN1C(=O)[C@@H]1CCCN1C(=O)CNC(=O)[C@@H]1CCC(=O)N1)[C@@H](C)CC)[C@@H](C)CC)[C@@H](C)CC)[C@@H](C)CC)[C@@H](C)O)C(N)=O [Sauvagine] | 0.5 |  | 0.4 | more potent than either oCRF or r/hCRF |  |
| CC[C@H](C)[C@H](NC(=O)[C@H](CO)NC(=O)[C@H](CC(N)=O)NC(=O)[C@H](CC(C)C)NC(=O)[C@H](Cc1ccc(O)cc1)NC(=O)[C@H](CCCCN)NC(=O)[C@H](CCCCN)NC(=O)[C@@H](NC(=O)[C@H](C)NC(=O)[C@H](CCSC)NC(=O)[C@H](CCC(N)=O)NC(=O)[C@H](CCCCN)NC(=O)[C@H](CCCNC(=N)N)NC(=O)[C@H](CC(C)C)NC(=O)[C@H](CCCNC(=N)N)NC(=O)[C@@H](NC(=O)[C@H](Cc1ccc(O)cc1)NC(=O)[C@H](CC(N)=O)NC(=O)[C@H](CC(=O)O)NC(=O)[C@@H](NC(=O)[C@H](Cc1ccccc1)NC(=O)[C@@H](NC(=O)[C@H](C)NC(=O)[C@H](CC(=O)O)NC(=O)[C@H](CO)NC(=O)[C@@H](N)Cc1c[nH]cn1)C(C)C)[C@@H](C)O)[C@@H](C)O)C(C)C)C(=O)N[C@@H](CC(C)C)C(=O)N[C@@H](CC(N)=O)C(N)=O [VIP] | > 1000 |  |  |  |  |
| oCRF | 80 |  |  |  | dose-dependent increase in cAMP |
